This test relates to SW480 viability, CellTiter-Glo luminescence. The test is described as follows: 50% inhibitory concentration in SW480 colon cancer line, survival by CellTiter-Glo luminescence, dose-dependent response (AID 1117338).

Active and inactive are the calls of the source. The rule behind the calls is not given here.

For the molecule `OCCN1CCN(CC/C=C2/c3ccccc3Sc3ccc(C(F)(F)F)cc32)CC1`, the IC50 was 3.93 µM.

Turning to `O=Cc1ccc(O)c(O)c1O`, the IC50 is 11.3 µM (inactive). In the case of `CC(=O)[O][Hg][c]1ccccc1` it was 0.543 µM; in that of `O=C1[O][Bi][O]c2ccccc21`, > 20 µM (inactive). For `Cn1cnc([N+](=O)[O-])c1Sc1ncnc2nc[nH]c12` the value was 9.44 µM (inactive). For `CCCCCCCCCCCCCC[N+](C)(C)C` the value was 0.933 µM; for `Cc1ccc([N+](=O)[O-])[c]2c1[O][Hg]2`, 1.13 µM.

Take `O=C(O)C1(C(=O)O)CCC1.[NH2-].[NH2-].[Pt+2]`: the IC50 was > 20 µM (inactive).

Values taken from PubChem BioAssay AID1117338.
